The source of these data is patent publication US20030226169A1, “DNA sequences encoding antifungal proteins” (priority 1995, published 2003).

In brackets after ≈: the same amount, converted by molar mass. Non-standard residues stand in square brackets, D forms with d. Residues, ends and D or L forms follow the SMILES beside them. Abu = CC[C@H](N)C(=O)O

The test deals with Fusarium culmorum (IMI 180420). The test can be described thus: Antifungal growth inhibition microplate assay (photospectrometry). Type of test: cell-based. Here is the method:
The following fungal strains were used: Alternaria brassicicola (MUCL 20297), Ascophyta pisi (MUCL 30164), Botrytis cinerea (MUCL 30158), Fusarium culmorum (IMI 180420) and Verticillium dahliae (MUCL 19210).
Fungi were grown on six cereal agar plates at room temperature and under white fluorescent light except for F culmorum and V dahliae which were grown in the dark. The duration of the spore harvest varied between 10 and 25 days depending on the strain. Spores were collected as follows. Five to ten ml of sterile milli-Q water was poured into each dish and the surface of the agar was rubbed with a sterile spatula to obtain a suspension containing mycelium and spores. This suspension was filtered through a sterile glasswool-plugged funnel and the filtrate containing the spores was collected in a sterile polypropylene centrifuge tube. The A brassicicola spores were suspended in sterile 0.1 Tween 20 (Merk, 822184) due to their hydrophobic nature. The spore suspensions were then washed twice by centrifugation at 2,400×g for 15 minutes and resuspended in a small volume of steril milli-Q water. The spore density was determined in a counting chamber and then adjusted to 4×10^7 spores per ml. Aliquots of the spore suspension were transferred to sterile microtubes and an equal volume of sterile 50% glycerol (Merck, 4091) was added to each tube so that a final spore suspension of 2×10^7 spores per ml in 25% glycerol was obtained. After careful mixing of the stock, the spore suspension was transferred in 100 μl aliquots to sterile microtubes and stored at −80° C.
Antifungal activity was measured by photospectrometry as described by Broekaert et al, (1990, FEMS Microbiol Lett, 69:55-60). Tests were performed by adding 20 μl of test solution and 80 μl of a fungal spore suspension (2×10^4 spores/ml) per well in a sterile flat-bottom 96-well microtiterplate. The spore suspension was prepared by diluting the stock spore suspension ([…] in 25% glycerol) 1:1000 in half-strength potato dextrose broth. A positive growth control consisting of eight wells containing 20 μl of sterile milli-Q water and 80 μl of the fungal spore suspension was included in each test. The microtiterplates were incubated (with the lid on) in an aerated place at room temperature and under conditions of darkness for all test organisms.
After 30 minutes of incubation (when the spores are settled on the well bottom) the optical density was measured in a microplate reader (Bio Rad 3550-UV) at 595 nm. Incubation of the microtiterplates continued until the optical density of the control microculture was between 0.250 and 0.500, which took approximately 72 hours (96 hours for V dahliae). Percentage of growth inhibition (% GI) was estimated as 100 times the ratio of the corrected absorbance of the control microculture minus the corrected absorbance of the test microculture over the corrected absorbance of the control microculture at 595 nm. The corrected absorbance values equal the absorbance at 595 nm of the culture measured after 72 or 96 hours minus the absorbance at 595 nm measured after 30 minutes.
% GI=[(Acontrol−Atest/Acontrol]×100
where Acontrol=(A72/96h−A30min)control
The IC50 value is defined as the concentration that gives a 50% growth inhibition after 72 or 96 hours of incubation. The minimum inhibitory concentration (MIC) corresponds to the minimum concentration that gives 100% growth inhibition after 72 or 96 hours incubation.

Setting [1] is: Table 14: 18-, 19-, 20-mer peptides with C-terminal Phe49, duplo.
Where [2] appears, read: Table 3 / FIG. 6: Rs-AFP2-based 9-mer split peptides, ½ PDB, the source numbers peptides by N-terminal amino acid.
Where [3] appears, read: Table 3: Rs-AFP2-based 9-mer split peptides, ½ PDB, duplicate.
Where [4] appears, read: Table 4 / FIG. 6: Rs-AFP2-based 12-mer split peptides, ½ PDB, the source numbers peptides by N-terminal amino acid.
The mark [5] stands for this setting: Table 4: Rs-AFP2-based 12-mer split peptides, ½ PDB, triplicate.

Regarding `CC[C@H](NC(=O)[C@H](CO)NC(=O)CNC(=O)[C@H](Cc1c[nH]cn1)NC(=O)[C@H](CCCNC(=N)N)NC(=O)[C@H](C)NC(=O)[C@H](CCCCN)NC(C)=O)C(=O)N[C@@H](CC(N)=O)C(=O)N[C@@H](Cc1ccc(O)cc1)C(=O)N[C@H](C(=O)N[C@@H](Cc1ccccc1)C(=O)N1CCC[C@H]1C(=O)N[C@@H](C)C(=O)N[C@@H](Cc1c[nH]cn1)C(=O)N[C@@H](CCCCN)C(=O)N[C@@H](CC)C(=O)N[C@H](C(=O)N[C@@H](CC)C(=O)N[C@@H](Cc1ccc(O)cc1)C(=O)N[C@@H](Cc1ccccc1)C(N)=O)[C@@H](C)CC)C(C)C` [Peptide Q06, KARHGSBNYVFPAHKBIBYF] (Ac-KARHGS[Abu]NYVFPAHK[Abu]I[Abu]YF-NH2), under setting [1], the “IC50 SMF + pH5” value worked out at 31 ± 17 μg/ml and the “IC50 SMF + pH7” value turned out to be 62 ± 8 μg/ml. Moreover, the “IC50 ½ PDB” value (Table 14: 18-, 19-, 20-mer peptides with C-terminal Phe49, peptides single experiment) stood at 4.8 µg/mL (≈ 2.06 µM).
In turn, `CC[C@H](C)[C@H](NC(=O)[C@H](CS)NC(=O)[C@H](CCC(N)=O)NC(=O)[C@H](CC(N)=O)NC(=O)[C@H](CCCCN)NC(=O)[C@H](CS)NC(=O)[C@H](C)NC(=O)[C@H](CC(N)=O)NC(C)=O)C(=O)N[C@@H](CCCNC(=N)N)C(N)=O` [compound 65] (Ac-NACKNQCIR-NH2) registered an IC50 under setting [2] of 144 µg/mL (≈ 132 µM). This compound also displayed an MIC under setting [3] of 200 µg/mL (≈ 183 µM).
On the same counts, the results for `CC[C@H](C)[C@H](NC(=O)[C@H](CS)NC(=O)[C@H](CCC(N)=O)NC(=O)[C@H](CC(N)=O)NC(=O)[C@H](CCCCN)NC(=O)[C@H](CS)NC(=O)[C@H](C)NC(C)=O)C(=O)N[C@@H](CCCNC(=N)N)C(=O)N[C@@H](CC(C)C)C(N)=O` [compound 66] (Ac-ACKNQCIRL-NH2) are 105 µg/mL (≈ 96.4 µM) and 150 µg/mL (≈ 138 µM).
Under setting [4], `CC[C@H](C)[C@H](NC(=O)[C@H](CS)NC(=O)[C@H](CCC(N)=O)NC(=O)[C@H](CC(N)=O)NC(=O)[C@H](CCCCN)NC(=O)[C@H](CS)NC(=O)[C@H](C)NC(=O)[C@H](CC(N)=O)NC(=O)[C@H](CC(N)=O)NC(=O)[C@H](CC(N)=O)NC(C)=O)C(=O)N[C@@H](CCCNC(=N)N)C(=O)N[C@@H](CC(C)C)C(N)=O` [compound 106] (Ac-NNNACKNQCIRL-NH2) had an IC50 of 116 µg/mL (≈ 81 µM). The MIC under setting [5] stood at 150 µg/mL (≈ 105 µM).
For `CC[C@H](C)[C@H](NC(=O)[C@H](CS)NC(=O)[C@H](CCC(N)=O)NC(=O)[C@H](CC(N)=O)NC(=O)[C@H](CCCCN)NC(=O)[C@H](CS)NC(=O)[C@H](C)NC(=O)[C@H](CC(N)=O)NC(C)=O)C(=O)N[C@@H](CCCNC(=N)N)C(=O)N[C@@H](CC(C)C)C(=O)N[C@@H](CCC(=O)O)C(=O)N[C@@H](CCCCN)C(N)=O` [compound 108] (Ac-NACKNQCIRLEK-NH2) the same measures were 150 µg/mL (≈ 103 µM) and 200 µg/mL (≈ 137 µM).
On the same counts, the results for `CC[C@H](C)[C@H](NC(=O)[C@H](CS)NC(=O)[C@H](CCC(N)=O)NC(=O)[C@H](CC(N)=O)NC(=O)[C@H](CCCCN)NC(=O)[C@H](CS)NC(=O)[C@H](C)NC(C)=O)C(=O)N[C@@H](CCCNC(=N)N)C(=O)N[C@@H](CC(C)C)C(=O)N[C@@H](CCC(=O)O)C(=O)N[C@@H](CCCCN)C(=O)N[C@@H](C)C(N)=O` [compound 109] (Ac-ACKNQCIRLEKA-NH2) are 106 µg/mL (≈ 74.8 µM) and 150 µg/mL (≈ 106 µM).
Under setting [2], Ac-CIRLEKARH-NH2 [compound 71] came in with an IC50 of 66 µg/mL. Besides, under setting [3], it took 100 µg/mL to inhibit growth (MIC).
With Ac-FPAHKC-NH2 [compound 40], the MIC (Table 2: Rs-AFP2-based 6-mer split peptides, ½ PDB, duplicate) is 100 µg/mL.
In the case of Ac-IRLEKARHGSCN-NH2 [compound 115], the IC50 under setting [4] stood at 203 µg/mL. The compound also registered an MIC under setting [5] of 300 µg/mL.
Ac-KNQCIRLEKARH-NH2 [compound 111]: under setting [4], the IC50 came out at 126 µg/mL. Also, the MIC under setting [5] stood at 200 µg/mL.
Turning to Ac-LEKARHGSC-NH2 [compound 74], under setting [2], the IC50 was 270 µg/mL. For the same compound, inhibition of growth under setting [3] (MIC) required 400 µg/mL. The “F CULMORUM IC” value (Table 6 / FIG. 8: Rs-AFP1-based 9-mer split peptides, ½ PDB, the source numbers peptides by N-terminal amino acid) came out at 370 µg/mL. Further, the “F CULMORUM MIC” value (Table 6: Rs-AFP1-based 9-mer split peptides, ½ PDB) is over 400 µg/mL.
For the compound Ac-NQCIRLEKARHG-NH2 [compound 112], the IC50 under setting [4] was 149 µg/mL. The compound also came in with an MIC under setting [5] of 200 µg/mL.

Usually IC50 stands for the midpoint of a concentration-inhibition curve. The low end stands for greater potency in that assay, the high end for weaker potency in that assay. The term MIC denotes the lowest concentration found to suppress growth.
